From patent publication US9181234B2, “Antibacterial compounds” (priority 2010, dated 2015)
Values after ≈ are worked out from the molar mass of the structure shown.

What was measured:
[1] = test system: Haemophilus influenzae (Isolate ID ATCC 49247); assay: Antibacterial activity, MIC, H. influenzae; format: cell-based; conditions: Haemophilus influenzae, ATCC49247; Gram negative strain; broth microdilution or agar dilution
How it was run: (§1)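 Susceptibility testing run in liquid or on solid media, with MIC values obtained by the CLSI-described broth microdilution or agar dilution method.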

[2] = test system: Staphylococcus aureus (Isolate ID ATCC 29213); assay: Antibacterial activity, MIC, S. aureus; format: cell-based; conditions: Staphylococcus aureus, ATCC29213, Gram positive strain; broth microdilution or agar dilution
How it was run: as §1

[3] = test system: Enterococcus faecalis (Isolate ID ATCC 29212); assay: Antibacterial activity, MIC, E. faecalis; format: cell-based; conditions: Enterococcus faecalis, ATCC29212; Gram positive strain; broth microdilution or agar dilution
Procedure: Bacterial Assay: Determination of Antibacterial Activity
Compounds of the invention were tested for antimicrobial activity by susceptibility testing in liquid or on solid media. MICs for compounds against each strain were determined by the broth microdilution or agar dilution method according to the guidelines of the Clinical Laboratories and Standards Institute, formerly the National Committee for Clinical Laboratory Standards (Clinical Laboratories and Standards Institute. Methods for Dilution Antimicrobial Susceptibility Tests for Bacteria That Grow Aerobically; Approved Standard—Seventh Edition. Document M7-A7. CLSI, Wayne, Pa., 2006; Clinical Laboratories and Standards Institute. The gram positive bacterial strains tested include S. aureus (Staphylococcus aureus (Isolate ID ATCC 29213)), E. faecalis (Enterococcus faecalis (Isolate ID ATCC 29212)) and S. pyogenes (Streptococcus pyogenes (Isolate ID ATCC 51339)). The gram negative bacterial strains tested include H. influenzae (Haemophilus influenzae (Isolate ID ATCC 49247))

[4] = test system: Streptococcus pyogenes (Isolate ID ATCC 51339); assay: Antibacterial activity, MIC, S. pyogenes; format: cell-based; conditions: Streptococcus pyogenes, ATCC51339, Gram positive strain; broth microdilution or agar dilution
How it was run: as §1

physchem = conditions: kinetic from dmso stock
How it was run: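 DMSO doubling dilutions were diluted twenty-fold into 100 mM citrate (pH 4), PBS (pH 7.4) or carbonate-bicarbonate (pH 9). After 24 h equilibration at room temperature, absorbance was read at 620 nm. The reported value is the highest concentration without measurable precipitate.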

[5] = pH 7.4, aqueous buffer, Solubility (pH 7.4)
[6] = pH 7.4, aqueous buffer, Solubility Range
[7] = pH 7.4, aqueous buffer, Max Solubility
[8] = pH 7.4, aqueous buffer, Solubility Range (maximum solubility)
[9] = pH 9, aqueous buffer, Max Solubility
[10] = pH 9, aqueous buffer, Solubility Range (maximum solubility)

| SMILES | MIC [1] [µg/mL] | MIC [2] [µg/mL] | MIC [3] [µg/mL] | MIC [4] [µg/mL] | solubility at 24 h (physchem; [5]) [µg/mL] | solubility at 24 h (physchem; [6]) [µg/mL] | solubility at 24 h (physchem; [7]) [µg/mL] | solubility at 24 h (physchem; [8]) [µg/mL] | solubility at 24 h (physchem; [9]) [µg/mL] | solubility at 24 h (physchem; [10]) [µg/mL] |
| --- | --- | --- | --- | --- | --- | --- | --- | --- | --- | --- |
| CCNC(=O)Nc1nc2cc(-c3cnc(N4CCC(C)(C(=O)O)CC4)nc3)cc(-c3nc(CO)cs3)c2s1 [Compound 27] | 1 to 16 (≈ 1.81 to 28.9 µM) | 1 to 16 (≈ 1.81 to 28.9 µM) | ≤ 0.25 | ≤ 0.25 | ≥ 800 | > 800 |  |  |  |  |
| C#Cc1cc(-c2cnc(N3CCC(C)(C(=O)O)CC3)nc2)cc2nc(NC(=O)NCC)sc12 [Compound 28] | 1 to 16 (≈ 2.15 to 34.4 µM) | 0.25 to 1 (≈ 0.538 to 2.15 µM) | ≤ 0.25 | 0.25 to 1 (≈ 0.538 to 2.15 µM) | ≥ 800 | > 800 |  |  |  |  |
| CCNC(=O)Nc1nc2cc(-c3cnc(N4CCC(C)(C(=O)O)CC4)nc3)cc(-n3cccn3)c2s1 [Compound 29] | 1 to 16 (≈ 1.97 to 31.6 µM) | 0.25 to 1 (≈ 0.493 to 1.97 µM) | ≤ 0.25 | 0.25 to 1 (≈ 0.493 to 1.97 µM) | ≥ 800 | > 800 |  |  |  |  |
| CCNC(=O)Nc1nc2cc(-c3cnc(N4CCC(C)(C(=O)O)CC4)nc3)cc(-c3cccn3C)c2s1 [Compound 30] | 1 to 16 (≈ 1.92 to 30.8 µM) | 0.25 to 1 (≈ 0.481 to 1.92 µM) | ≤ 0.25 | 0.25 to 1 (≈ 0.481 to 1.92 µM) | ≥ 800 | > 800 |  |  |  |  |
| CCNC(=O)Nc1nc2cc(-c3cnc(N4CCC(C)(C(=O)O)CC4)nc3)cc(-c3ccc(C)cn3)c2s1 [Compound 31] | 0.25 to 1 (≈ 0.47 to 1.88 µM) | ≤ 0.25 | ≤ 0.25 | ≤ 0.25 | ≥ 800 | > 800 | ≥ 800 | > 800 |  |  |
| CCNC(=O)Nc1nc2cc(-c3cnc(N4CCC(C)(C(=O)O)CC4)nc3)cc(-c3cccc(C#N)n3)c2s1 [Compound 32] | 1 to 16 (≈ 1.84 to 29.5 µM) | ≤ 0.25 | ≤ 0.25 | ≤ 0.25 | 400 (≈ 737 µM) | 400 to 800 (≈ 737 to 1470 µM) | 400 (≈ 737 µM) | 400 to 800 (≈ 737 to 1470 µM) |  |  |
| CCNC(=O)Nc1nc2cc(-c3cnc(N4CCC(C)(C(=O)O)CC4)nc3)cc(-n3ccnc3)c2s1 [Compound 33] | > 16 | > 16 | 1 to 16 (≈ 1.97 to 31.6 µM) | 1 to 16 (≈ 1.97 to 31.6 µM) | 200 (≈ 395 µM) | 12.5 to 400 (≈ 24.7 to 790 µM) |  |  | ≥ 800 | > 800 |
| CCNC(=O)Nc1nc2cc(-c3cnc(N4CCC(C)(C(=O)O)CC4)nc3)cc(-c3ncc(F)cn3)c2s1 [Compound 34] | 1 to 16 (≈ 1.86 to 29.8 µM) | ≤ 0.25 | ≤ 0.25 | ≤ 0.25 | 50 (≈ 93.2 µM) | 12.5 to 400 (≈ 23.3 to 745 µM) |  |  | 100 (≈ 186 µM) | 12.5 to 400 (≈ 23.3 to 745 µM) |
| CCNC(=O)Nc1nc2cc(-c3cnc(N4CCC(C)(C(=O)O)CC4)c(F)c3)cc(-c3ccccn3)c2s1 [Compound 36] | 1 to 16 (≈ 1.87 to 29.9 µM) | ≤ 0.25 | ≤ 0.25 | ≤ 0.25 | 50 (≈ 93.5 µM) | 12.5 to 400 (≈ 23.4 to 748 µM) |  |  | 400 (≈ 748 µM) | 400 to 800 (≈ 748 to 1500 µM) |
| CCNC(=O)Nc1nc2cc(-c3cnc(N4CCC(C)(C(=O)O)CC4)nc3)cc(C)c2s1 [Compound 38, 1-{5-[2-(3-Ethyl-ureido)-7-methyl-benzothiazol-5-yl]-pyrimidin-2-yl}-4-methyl-piperidine-4-carboxylic acid] | > 16 | 0.25 to 1 (≈ 0.55 to 2.2 µM) | ≤ 0.25 | 0.25 to 1 (≈ 0.55 to 2.2 µM) | ≥ 800 | > 800 | ≥ 800 | > 800 |  |  |
| CCNC(=O)Nc1nc2cc(-c3cnc(N4CCC(C)(C(=O)O)CC4)cn3)cc(-c3ccccn3)c2s1 [Compound 40] | 1 to 16 (≈ 1.93 to 30.9 µM) | 0.25 to 1 (≈ 0.483 to 1.93 µM) | ≤ 0.25 | ≤ 0.25 | ≥ 800 | > 800 | ≥ 800 | > 800 |  |  |
| CCNC(=O)Nc1nc2cc(-c3cnc(N4CCC(C)(C(=O)O)CC4)nc3)cc(-c3cn(-c4ccccc4)nn3)c2s1 [Compound 41, 1-[5-[2-(ethylcarbamoylamino)-7-(1-phenyltriazol-4-yl)-1,3-benzothiazol-5-yl]pyrimidin-2-yl]-4-methyl-piperidine-4-carboxylic acid] | 1 to 16 (≈ 1.71 to 27.4 µM) | ≤ 0.25 | ≤ 0.25 | ≤ 0.25 | ≥ 800 | > 800 | ≥ 800 | > 800 |  |  |
| CCNC(=O)Nc1nc2cc(-c3cnc(N4CCC(C)(C(=O)O)CC4)nc3)cc(-c3ccnc(OC)n3)c2s1 [Compound 42] | 1 to 16 (≈ 1.82 to 29.2 µM) | 0.25 to 1 (≈ 0.456 to 1.82 µM) | ≤ 0.25 | ≤ 0.25 | 25 (≈ 45.6 µM) | 12.5 to 400 (≈ 22.8 to 729 µM) |  |  | 100 (≈ 182 µM) | 12.5 to 400 (≈ 22.8 to 729 µM) |
| CCNC(=O)Nc1nc2cc(-c3cnc(N4CCC(C)(C(=O)O)CC4)nc3)cc(-c3ccnc(C)n3)c2s1 [Compound 43] | 0.25 to 1 (≈ 0.469 to 1.88 µM) | ≤ 0.25 | ≤ 0.25 | ≤ 0.25 | 400 (≈ 751 µM) | 400 to 800 (≈ 751 to 1500 µM) |  |  | ≥ 800 | > 800 |
| CCNC(=O)Nc1nc2cc(-c3cnc(N4CCC(C)(C(=O)O)CC4)nc3)cc(-c3ccnc(C#N)n3)c2s1 [Compound 44] | > 16 | 1 to 16 (≈ 1.84 to 29.4 µM) | ≤ 0.25 | ≤ 0.25 | ≥ 800 | > 800 | ≥ 800 | > 800 |  |  |
| CCNC(=O)Nc1nc2cc(-c3cnc(N4CCC(C)(C(=O)O)CC4)nc3)cc(-c3cc(C)ncn3)c2s1 [Compound 45] | 0.25 to 1 (≈ 0.469 to 1.88 µM) | ≤ 0.25 | ≤ 0.25 | ≤ 0.25 | ≥ 800 | > 800 | ≥ 800 | > 800 |  |  |
| CCNC(=O)Nc1nc2cc(-c3cnc(N4CCC(C)(C(=O)O)CC4)nc3)ccc2s1 [Compound 46, 1-{5-[2-(3-Ethyl-ureido)-benzothiazol-5-yl]-pyrimidin-2-yl}-4-methyl-piperidine-4-carboxylic acid] | > 16 | 1 to 16 (≈ 2.27 to 36.3 µM) | 0.25 to 1 (≈ 0.567 to 2.27 µM) | 1 to 16 (≈ 2.27 to 36.3 µM) | 100 (≈ 227 µM) | 12.5 to 400 (≈ 28.4 to 908 µM) |  |  | 400 (≈ 908 µM) | 400 to 800 (≈ 908 to 1820 µM) |
| CCNC(=O)Nc1nc2cc(-c3cnc(N4CCC(C)(C(=O)O)CC4)nc3)cc(C3CCOCC3)c2s1 [Compound 47, 1-[5-[2-(ethylcarbamoylamino)-7-tetrahydropyran-4-yl-1,3-benzothiazol-5-yl]pyrimidin-2-yl]-4-methyl-piperidine-4-carboxylic acid] | > 16 | 1 to 16 (≈ 1.91 to 30.5 µM) | 0.25 to 1 (≈ 0.477 to 1.91 µM) | 1 to 16 (≈ 1.91 to 30.5 µM) | ≥ 800 | > 800 | ≥ 800 | > 800 |  |  |
| CCNC(=O)Nc1nc2cc(-c3cnc(N4CCC(C)(C(=O)O)CC4)nc3)cc(-c3cc(OC(C)C)ncn3)c2s1 [Compound 48] | 1 to 16 (≈ 1.73 to 27.7 µM) | ≤ 0.25 | ≤ 0.25 | ≤ 0.25 | 400 (≈ 694 µM) | 400 to 800 (≈ 694 to 1390 µM) |  |  | ≥ 800 | > 800 |
| CCNC(=O)Nc1nc2cc(-c3cnc(N4CCC(C)(C(=O)O)CC4)nc3)cc(-c3cc(OCCOC)nc(C)n3)c2s1 [Compound 49] | 1 to 16 (≈ 1.65 to 26.4 µM) | ≤ 0.25 | ≤ 0.25 | ≤ 0.25 | ≥ 800 | > 800 | ≥ 800 | > 800 |  |  |
| CCNC(=O)Nc1nc2cc(-c3cnc(N4CCC(C)(C(=O)O)CC4)nc3)cc(-c3cn(C)nn3)c2s1 [Compound 50, 1-[5-[2-(ethylcarbamoylamino)-7-(1-methyltriazol-4-yl)-1,3-benzothiazol-5-yl]pyrimidin-2-yl]-4-methyl-piperidine-4-carboxylic acid] | 1 to 16 (≈ 1.92 to 30.7 µM) | > 16 | 0.25 to 1 (≈ 0.479 to 1.92 µM) | 0.25 to 1 (≈ 0.479 to 1.92 µM) | ≥ 800 | > 800 | ≥ 800 | > 800 |  |  |
| CCNC(=O)Nc1nc2cc(-c3cnc(N4CCC(C)(C(=O)O)CC4)nc3)cc(-c3ncc(OC)cn3)c2s1 [Compound 51] | 0.25 to 1 (≈ 0.456 to 1.82 µM) | ≤ 0.25 | ≤ 0.25 | ≤ 0.25 | ≥ 800 | > 800 | ≥ 800 | > 800 |  |  |
| CCNC(=O)Nc1nc2cc(-c3cnc(N4CCC(C)(C(=O)O)CC4)nc3)cc(-c3cccc(OC)n3)c2s1 [Compound 52] | 1 to 16 (≈ 1.83 to 29.2 µM) | ≤ 0.25 | ≤ 0.25 | ≤ 0.25 | ≥ 800 | > 800 | ≥ 800 | > 800 |  |  |
